In brackets after ≈: the same amount, converted by molar mass. Residues, ends and D or L forms follow the SMILES beside them. No end group written: not given here.

Series [1] relates to Listonella (Vibrio) anguillarum, serotype O2 (FT 1801). The class given is cell-based. In outline: (§1)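 Peptide fractions were incubated with actively growing bacteria in Mueller Hinton medium at a starting concentration of 3×10^4 cells per ml. Growth was monitored continuously in a Bioscreen C reader; polymyxin B served as reference.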
Series [2] concerns murine B lymphoma (reticulum cell sarcoma) cell line A20. The series is classed as cell-based. The conditions noted are these: 4 h. As for the experimental part:
The cytotoxic effects of the peptides on different human tumour cells were measured using the MTT colorimetric assay (Mosmann, 1983). MIT (3-(4-5-dimethylthiazol-2-yl)-2,5-diphenyl tetrazolium bromide) is a soluble tetrazolium salt yielding a yellow solution when prepared in media or salt solutions lacking phenol red. Dissolved MIT is converted to an insoluble purple formazan by cleavage of the tetrazolium ring by dehydrogenase enzymes. This water insoluble formazan can be solubilized using isopropanol or other solvents and the dissolved material is measured spectrophotometrically. The absorbance was measured as a function of concentration of converted dye. The conversion of the soluble dye to the insoluble purple formazan is utilized in assays for measurement of cell proliferation. […] We used this assay to measure the degree of cell death caused by the peptides.
CT26 and A20 were maintained in RPMI-1640 medium supplemented with 10% heat inactivated FBS and 1% L-glutamine in a humidified atmosphere of 5% CO2 at 37° C. The human embryonic fibroblast cell line, MRC-5, was cultured as a monolayer in MEM medium, under the same conditions as described for the tumour cell lines. CT26 and MRC-5 cells to be used in the assay were grown to a minimum of 75% confluency, trypsinated and split to single cell suspension, counted and centrifuged at 1500 rpm for 7 min. The cell pellet was resuspended to a concentration of 1-2×10^5 cells/ml in RPMI-1640 medium without FBS and L-glutamine-L-alanine (assay-medium). The A20 cells were grown in suspension and adjusted to a concentration of 6×10^5 cells/ml in assay medium. All cell lines were routinely tested for mycoplasma infection using a PCR-based mycoplasma detection kit (MycoSensor PCR Assay Kit, Stratagene), following the supplier's instructions. All cell lines were mycoplasma free.
The cytotoxicity was measured using the MTT method (Mosmann, 1983), with minor modifications. The adherent cells (CT26 and MRC-5) were applied in 96-well culture plates in a volume of 100 μl assay medium and incubated at 37° C. for 24 hours. The A20 cells were applied to the microtiter plates just prior to testing. The medium was removed and the cells were treated with 100 μl of peptide solution (concentrations ranging from 0 to 400 μg/ml), diluted in serum-free medium, and the plates were incubated at 37° C. for 4 hours. Cells treated with Triton X-100 (1%) were used as positive control (100% killing) whereas cells plus medium only were used as negative control. Following the incubation period, 10 and 20 μl MTT (5 mg/ml, dissolved in PBS) were added to each well in the adherent cells (CT26 and MRC-5) and the A20 cells, respectively. After further incubation for 2 hours, a volume of 70 μl of the supernatant was removed and 100 μl acid alcohol (0.04 M HCl in isopropanol) added to each well in the adherent cell lines. For the cells grown in suspension (A20), a volume of 130 μl of the supernatant was removed and 100 μl acid alcohol was added. The plates were placed on a shaker for 1 hour at room temperature and read spectrophotometrically at 590 nm in a microtiter plate reader (Thermomax Molecular devices, New Jersey, USA). Cell survival (%, averaging at least 2 parallels) and IC50 values were estimated as described above.

Another series is described as follows: in vitro. The class given is cell-based, human. The conditions noted are these: human. As for the experimental part: The toxicity of test peptides on THP-1 cells was measured using the MIT method (Mosmann, 1983), with minor modifications. To induce monocyte-macrophage differentiation, THP-1 cells were cultured in 96-well culture plates (10^6 cells/well) in a volume of 100 μl RPMI 1640 medium, containing 50 ng/ml PMA (which is known to induce the maturation of monocytes) and incubated in a humidified atmosphere of 5% CO2 at 37° C. for 48 hours. The medium was then removed and the cells were washed with PBS, added 100 μl fresh medium (without PMA) and incubated for another 24 hours. Medium was removed and the adherent macrophages were treated with 100 μl of peptide solution (concentrations ranging from 0 to 800 μg/ml), diluted in RPMI-1640 assay medium without FBS. After incubation at 37° C. for 1 hour, the cells were added LPS (0.1 μg/ml) and further incubated for 4 hours. Cells treated with Triton X-100 (1%) were used as positive control (100% killing) whereas cells plus medium only were used as negative control. Following the incubation period, 10 μl MTT (5 mg/ml) dissolved in phosphate-buffered saline (PBS) was added to each well, and the plate was further incubated for 2 hours. A volume of 70 μl of the supernatant was then removed and 100 μl acid alcohol (0.04 M HCl in isopropanol) added to each well to dissolve the dark blue crystals. The plate was placed on a shaker for 1 hour at room temperature and read spectrophotometrically at 595 nm in a microtiter plate reader (DTX880 Multimode Detector, Beckman Coulter). Cell survival (%) was then determined from the ΔA595 nm relative to negative control (100% living cells) and expressed as 50% inhibitory concentration (IC50). The IC50 values were estimated from the dose-response curves, which were obtained by averaging at least 3 parallel experiments.

Series [3] deals with C. glutamicum (ATCC 13032). The series is classed as cell-based, Corynebacterium glutamicum. In outline:
as §1

With `CC[C@H](C)[C@H](NC(=O)CNC(=O)[C@H](CO)NC(=O)[C@H](CCCCN)NC(=O)[C@@H](NC(=O)[C@H](C)NC(=O)[C@H](Cc1c[nH]cn1)NC(=O)[C@H](CO)NC(=O)[C@@H](NC(=O)[C@H](CCCCN)NC(=O)[C@H](Cc1c[nH]cn1)NC(=O)[C@H](Cc1ccccc1)NC(=O)[C@@H](NC(=O)[C@H](CCCCN)NC(=O)[C@H](CCCCN)NC(=O)[C@H](Cc1ccccc1)NC(=O)C(Cc1c[nH]c2ccc(Br)cc12)NC(=O)CN)[C@@H](C)O)C(C)C)C(C)C)C(=O)N[C@@H](Cc1c[nH]cn1)C(=O)N[C@@H](C)C(=O)NCC(=O)N[C@@H](CCC(N)=O)C(=O)N[C@@H](CCCNC(=N)N)C(=O)NCC(=O)N[C@@H](CS)C(=O)N[C@@H](CO)C(=O)N[C@@H](C)C(=O)N[C@@H](CC(C)C)C(=O)NCC(=O)N[C@@H](Cc1ccccc1)C(=O)O` (stereo partly shown) [P17 HC-Br] (HELM PEPTIDE1{G.[O=C(C(Cc1c[nH]c2ccc(Br)cc12)N[*:1])[*:2]].F.K.K.T.F.H.K.V.S.H.A.V.K.S.G.I.H.A.G.Q.R.G.C.S.A.L.G.F}$$$$V2.0), the “Minimal inhibitory concentration, L. anguillarum” value in series [1] came to 0.78 µM (≈ 2.59 µg/mL). The compound also displayed an IC50 in series [2] of 24.1 µM. This compound also returned a CC50 at 5 h in “in vitro” of 51.1 µM.
Consider GWFKKTFHKVSHAVKSGIHA [P17 HC (1-20)], for which the “Minimal inhibitory concentration, C. glutamicum” value in series [3] worked out at 1.56 µM.
On to GWFKKTFHKVSHAVKSGIHAGQRGCSALGF [P17 HC], for which the “Minimal inhibitory concentration, L. anguillarum” value in series [1] was found to be 0.78 µM. The compound further gave an IC50 in series [2] of 3.9 µM. Also, the CC50 at 5 h in “in vitro” came to 38 µM.

Usually IC50 stands for the point on the concentration scale where inhibition reaches its midpoint. Read a low IC50 as inhibition by little substance. For orientation: CC50 means the concentration giving 50% cytotoxicity. Read a low CC50 as harm at low concentration.

(Values after patent US20100093642A1, “NOVEL POLYPEPTIDES” (priority 2006, published 2010).)
